Data on 30 compounds can be found in patent US6875760B2 (Novo Nordisk A/S, priority 1999, dated 2005).

For this assay, the target named is T1, cloned human glucagon receptor (Homo sapiens, UniProt P47871).
T1 construct: expressed in transfected cells; plasma membrane preparation
The experiment in a line: Glucagon Binding Assay (II). As to conditions: for inhibition at 1 µM: read-out: displacement of the glucagon tracer when screened at 1 μM concentration in the glucagon binding assay II.

The mark [1] stands for this setting: screened at 1 μM, library compounds.

Where two headings read alike, the source gives them in different places.

T1 sequence (P47871 26-477): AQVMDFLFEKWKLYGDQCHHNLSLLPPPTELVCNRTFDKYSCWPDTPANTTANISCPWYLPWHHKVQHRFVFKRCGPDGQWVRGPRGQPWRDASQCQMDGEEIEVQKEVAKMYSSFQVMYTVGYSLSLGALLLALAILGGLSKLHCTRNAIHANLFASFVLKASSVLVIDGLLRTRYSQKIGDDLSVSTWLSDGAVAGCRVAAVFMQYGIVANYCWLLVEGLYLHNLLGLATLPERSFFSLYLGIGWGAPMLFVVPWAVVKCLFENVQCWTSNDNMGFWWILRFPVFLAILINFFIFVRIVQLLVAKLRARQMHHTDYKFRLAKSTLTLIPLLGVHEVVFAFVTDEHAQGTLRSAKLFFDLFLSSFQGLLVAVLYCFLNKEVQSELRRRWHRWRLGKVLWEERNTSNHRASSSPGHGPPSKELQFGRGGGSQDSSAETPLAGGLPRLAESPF

In the case of `CC(C)(C)C1CCC(N(Cc2ccc(C(=O)NCCC(=O)O)cc2)C(=O)Nc2cccc(SC(F)(F)F)c2)CC1` (stereo not drawn) [Example 199, 3-{4-[1-(4-tert-Butylcyclohexyl)-3-(3-trifluoromethylsulfanylphenyl)ureidomethyl]benzoylamino}propionic acid], the inhibition at 1 µM under setting [1] is greater than 50%. Turning to `CCOc1ccc(NC(=O)N(Cc2ccc(C(=O)NCCC(=O)O)cc2)C2CCC(C(C)(C)C)CC2)cc1` (stereo not drawn) [Example 200, 3-{4-[1-(4-tert-Butylcyclohexyl)-3-(4-ethoxyphenyl)ureidomethyl]benzoylamino}propionic acid], the inhibition at 1 µM under setting [1] was greater than 50%. Same read-out and setting: in the case of `O=C(O)CCNC(=O)c1ccc(CN(CCc2cccc(Cl)c2)C(=O)Nc2cccc(SC(F)(F)F)c2)cc1` [Example 201, 3-{4-[1-[2-(3-Chlorophenyl)ethyl]-3-(3-trifluoromethylsulfanylphenyl)ureidomethyl]benzoylamino}propionic acid] it was greater than 50%; in that of `O=C(O)CCNC(=O)c1ccc(CN(C(=O)Nc2cccc(SC(F)(F)F)c2)c2ccc(C3CCCCC3)cc2)cc1` [Example 202, 3-{4-[1-(4-Cyclohexylphenyl)-3-(3-trifluoromethylsulfanylphenyl)ureidomethyl]benzoylamino}propionic acid], greater than 50%. Still for that read-out and setting: as for `O=C(O)CCNC(=O)c1ccc(CN(C(=O)NCOc2ccc3ccccc3c2)c2ccc(C3CCCCC3)cc2)cc1` [Example 203, 3-{4-[1-(4-Cyclohexylphenyl)-3-(naphthalen-2-yloxymethyl)ureidomethyl]benzoylamino}propionic acid], the figure is greater than 50%; as for `CC1(C)C2CCC(CN(Cc3ccc(C(=O)NCCC(=O)O)cc3)C(=O)Nc3cccc(SC(F)(F)F)c3)C1C2` (stereo not drawn) [Example 204, 3-{4-[1-(6,6-Dimethylbicyclo[3.1.1]hept-2-ylmethyl)-3-(3-trifluoromethylsulfanylphenyl)ureidomethyl]benzoylamino}propionic acid], greater than 50%. Same read-out and setting: as for `O=C(O)CCNC(=O)c1ccc(CN(C(=O)NCOc2ccc3ccccc3c2)c2ccc3c(c2)OC(F)(F)C(F)(F)O3)cc1` [Example 205, 3-{4-[3-(Naphthalen-2-yloxymethyl)-1-(2,2,3,3-tetrafluoro-2,3-dihydro-benzo[1,4]dioxin-6-yl)ureidomethyl]benzoylamino}propionic acid], the figure is greater than 50%; as for `CC(=O)N1CCc2cc(N(Cc3ccc(C(=O)NCCC(=O)O)cc3)C(=O)NCOc3ccc4ccccc4c3)ccc21` [Example 206, 3-{4-[1-(1-Acetyl-2,3-dihydro-1H-indol-5-yl)-3-(naphthalen-2-yloxymethyl)ureidomethyl]benzoylamino}propionic acid], greater than 50%; as for `CN(CCN(Cc1ccc(C(=O)NCCC(=O)O)cc1)C(=O)Nc1cccc(SC(F)(F)F)c1)C(=O)OC(C)(C)C` [Example 207, 3-{4-[1-[2-(N-tert-Butoxycarbonyl-N-methylamino)ethyl]-3-(3-trifluoromethylsulfanylphenyl)ureidomethyl]benzoylamino}propionic acid], greater than 50%. In the case of `CC(C)(C)C1CCC(N(Cc2ccc(C(=O)NCCC(=O)O)cc2)C(=O)NC(=O)Oc2ccccc2)CC1` (stereo not drawn) [Example 208, 3-{4-[1-(4-tert-Butylcyclohexyl)-3-(phenoxycarbonyl)ureidomethyl]benzoylamino}propionic acid], the inhibition at 1 µM was greater than 50%.

Regarding `CN1C(=O)c2ccc(NC(=O)N(Cc3ccc(C(=O)NCCC(=O)O)cc3)C3CCC(C(C)(C)C)CC3)cc2C1=O` (stereo not drawn) [Example 209, 3-{4-[1-(4-tert-Butylcyclohexyl)-3-(2-methyl-1,3-dioxo-2,3-dihydro-1H-isoindol-5-yl)ureidomethyl]benzoylamino}propionic acid], the inhibition at 1 µM under setting [1] was greater than 50%. Same read-out and setting: in the case of `O=C(O)CCNC(=O)c1ccc(CN(C(=O)Nc2cccc(SC(F)(F)F)c2)c2ccc(C3CCCCC3)cc2)o1` [Example 210, 3-({5-[1-(4-cyclohexylphenyl)-3-(3-trifluoromethylsulfanylphenyl)ureidomethyl]furan-2-carbonyl}amino)propionic acid] it was greater than 50%; in that of `CC(C)(C)C1CCC(N(Cc2ccc(C(=O)NCCC(=O)O)o2)C(=O)Nc2cccc(SC(F)(F)F)c2)CC1` (stereo not drawn) [Example 211, 3-({5-[1-(4-tert-Butylcyclohexyl)-3-(3-trifluoromethylsulfanylphenyl)ureidomethyl]furan-2-carbonyl}amino)propionic acid], greater than 50%; in that of `O=C(O)CCNC(=O)c1ccc(CN(C(=O)Nc2ccc(Cl)c(C(F)(F)F)c2)c2ccc(C3CCCCC3)cc2)o1` [Example 212, 3-({5-[3-(4-Chloro-3-trifluoromethylphenyl)-1-(4-cyclohexylphenyl)ureidomethyl]furan-2-carbonyl}amino)propionic acid], greater than 50%. For the compound `CC(C)(C)C1CCC(N(Cc2ccc(C(=O)NCCC(=O)O)o2)C(=O)Nc2ccc(Cl)c(C(F)(F)F)c2)CC1` (stereo not drawn) [Example 213, 3-({5-[1-(4-tert-Butylcyclohexyl)-3-(4-chloro-3-trifluoromethylphenyl)ureidomethyl]furan-2-carbonyl}amino)propionic acid], the inhibition at 1 µM under setting [1] was greater than 50%. The same measure, in the same setting: in the case of `CC1(C)C2CCC(CN(Cc3ccc(OCCCC(=O)O)cc3)C(=O)Nc3ccc(OC(F)(F)F)cc3)C1C2` (stereo not drawn) [Example 214, 4-{4-[1-(6,6-Dimethylbicyclo[3.1.1]hept-2-ylmethyl)-3-(4-trifluoromethoxyphenyl)ureidomethyl]phenoxy}butyric acid] it was greater than 50%; in that of `CC1(C)C2CCC(CN(Cc3ccc(OCCCC(=O)O)cc3)C(=O)Nc3ccc(Cl)c(C(F)(F)F)c3)C1C2` (stereo not drawn) [Example 215, 4-{4-[3-(4-Chloro-3-trifluoromethylphenyl)-1-(6,6-dimethylbicyclo[3.1.1]hept-2-ylmethyl)ureidomethyl]phenoxy}butyric acid], greater than 50%; in that of `O=C(O)CCCOc1ccc(CN(C(=O)Nc2ccc(OC(F)(F)F)cc2)c2ccc(C3CCCCC3)cc2)cc1` [Example 216, 4-{4-[1-(4-Cyclohexylphenyl)-3-(4-trifluoromethoxyphenyl)ureidomethyl]phenoxy}butyric acid], greater than 50%. The same measure, in the same setting: in the case of `O=C(O)CCCOc1ccc(CN(C(=O)Nc2ccc(Cl)c(C(F)(F)F)c2)c2ccc(C3CCCCC3)cc2)cc1` [Example 217, 4-{4-[3-(4-Chloro-3-trifluoromethylphenyl)-1-(4-cyclohexylphenyl)ureidomethyl]phenoxy}butyric acid] it was greater than 50%; in that of `O=C(O)CCCOc1ccc(CN(C(=O)Nc2ccc(C(=O)O)cc2)c2ccc(C3CCCCC3)cc2)cc1` [Example 218, 4-[3-[4-(3-Carboxypropoxy)benzyl]-3-(4-cyclohexylphenyl)ureido]benzoic acid], greater than 50%; in that of `Cc1cc(C)cc(NC(=O)N(Cc2ccc(OCCCC(=O)O)cc2)c2ccc(C3CCCCC3)cc2)c1` [Example 219, 4-{4-[1-(4-Cyclohexylphenyl)-3-(3,5-dimethylphenyl)ureidomethyl]phenoxy}butyric acid], greater than 50%. On the same count and under the same terms, in the case of `O=C(O)CCCOc1ccc(CN(C(=O)Nc2cc(C(=O)O)cc(C(=O)O)c2)c2ccc(C3CCCCC3)cc2)cc1` [Example 220, 5-[3-[4-(3-Carboxypropoxy)benzyl]-3-(4-cyclohexylphenyl)ureido]isophthalic acid] it was greater than 50%; in that of `COc1ccc2nc(N(Cc3ccc(OCCCC(=O)O)cc3)C(=O)Nc3ccc(Cl)c(C(F)(F)F)c3)sc2n1` [Example 221, 4-{4-[3-(4-Chloro-3-trifluoromethylphenyl)-1-(5-methoxythiazolo[5,4-b]pyridin-2-yl)ureidomethyl]phenoxy}butyric acid], greater than 50%; in that of `CC(C)(C)C1CCC(N(Cc2ccc(OCCCC(=O)O)cc2)C(=O)Nc2ccc(OC(F)(F)F)cc2)CC1` (stereo not drawn) [Example 224, 4-{4-[1-(4-tert-Butylcyclohexyl)-3-(4-trifluoromethoxyphenyl)ureidomethyl]phenoxy}butyric acid], greater than 50%.

For the compound `CC(C)(C)C1CCC(N(Cc2ccc(OCCCC(=O)O)cc2)C(=O)Nc2ccc(Cl)c(C(F)(F)F)c2)CC1` (stereo not drawn) [Example 225, 4-{4-[1-(4-tert-Butylcyclohexyl)-3-(4-chloro-3-trifluoromethylphenyl)ureidomethyl]phenoxy}butyric acid], the inhibition at 1 µM under setting [1] is greater than 50%. On to `CC(C)(C)C1CCC(N(Cc2ccc(OCCCC(=O)O)cc2)C(=O)Nc2ccc(C(=O)O)cc2)CC1` (stereo not drawn) [Example 226, 4-{3-(4-tert-Butylcyclohexyl)-3-[4-(3-carboxypropoxy)benzyl]ureido}benzoic acid], for which the inhibition at 1 µM under setting [1] was greater than 50%. On the same count and under the same terms, in the case of `Cc1cc(C)cc(NC(=O)N(Cc2ccc(OCCCC(=O)O)cc2)C2CCC(C(C)(C)C)CC2)c1` (stereo not drawn) [Example 227, 4-{4-[1-(4-tert-Butylcyclohexyl)-3-(3,5-dimethylphenyl)ureidomethyl]phenoxy}butyric acid] it was greater than 50%; in that of `O=C(O)CCN1C(=O)c2ccc(CN(C(=O)Nc3ccc(OC(F)(F)F)cc3)c3ccc4nc(S)sc4c3)cc2C1=O` [Example 228, 3-{5-[1-(2-Mercaptobenzothiazol-6-yl)-3-(4-trifluoromethoxyphenyl)ureidomethyl]-1,3-dioxo-1,3-dihydro-isoindol-2-yl}propionic acid], greater than 50%. For `O=C(O)CCN1C(=O)c2ccc(CN(C(=O)Nc3ccc(Cl)c(C(F)(F)F)c3)c3ccc4nc(S)sc4c3)cc2C1=O` [Example 229, 3-{5-[3-(4-Chloro-3-trifluoromethylphenyl)-1-(2-mercaptobenzothiazol-6-yl)ureidomethyl]1,3-dioxo-1,3-dihydro-isoindol-2-yl}propionic acid], the inhibition at 1 µM under setting [1] is greater than 50%. One may read the IC50 as the concentration that inhibits the measured activity by half. As for `CC(C)(C)C1CCC(N(Cc2ccc(C(=O)NCCC(=O)O)cc2)C(=O)Nc2ccc(Cl)cc2)CC1` (stereo not drawn) [Example 230, 3-{4-[1-(4-tert-Butylcyclohexyl)-3-(4-chlorophenyl)ureidomethyl]benzoylamino}propionic acid], for the setting “plasma membranes of BHK cells expressing the receptor, read-out: Glu Bd Assay (II) IC50”, the IC50 turned out to be 229 nM.
